According to patent US6655379B2, “Aerosolized active agent delivery” (Nektar Therapeutics, priority 1998, dated 2003):

Key:
[1] = human, in vivo
[2] = in vivo; cited from earlier work

| Substance | therapeutic effect, comparison of flow rates (dry powder inhaled, flow rates below 17 liters per minute vs above 17 liters per minute) | lung deposition, comparison of flow rates (human, in vivo) | bioavailabilities, comparison of flow rates [1] | times to peak concentration, comparison of flow rates [1] | efficiency of absorption as compared to subcutaneous delivery [2] |
| --- | --- | --- | --- | --- | --- |
| Albuterol sulfate | increased therapeutic effect | higher lung deposition |  |  |  |
| Human calcitonin: Powders containing 26.7% human calcitonin (Ciba-Geigy), spray dried with mannitol and citrate buffer |  |  | higher bioavailabilities | lower times to peak concentration |  |
| Low molecular weight heparin |  |  | higher bioavailabilities | lower times to peak concentration |  |
| semi-synthetic human insulin: semi-synthetic human insulin delivered by nebulizer to six diabetic children (Elliot et al) |  |  |  |  | 20-25% |
